Columns and labels:
Mtb-MenD [1] = biological target: T1, Mtb-MenD (Mycobacterium tuberculosis, UniProt P9WK11)
Mtb-MenD [2] = biological target: T1, Mtb-MenD; remark: listed apart in the source
Mtb-MenD [3] = biological target: T1, Mtb-MenD; experiment: biochemical

T1 sequence (P9WK11 whole entry): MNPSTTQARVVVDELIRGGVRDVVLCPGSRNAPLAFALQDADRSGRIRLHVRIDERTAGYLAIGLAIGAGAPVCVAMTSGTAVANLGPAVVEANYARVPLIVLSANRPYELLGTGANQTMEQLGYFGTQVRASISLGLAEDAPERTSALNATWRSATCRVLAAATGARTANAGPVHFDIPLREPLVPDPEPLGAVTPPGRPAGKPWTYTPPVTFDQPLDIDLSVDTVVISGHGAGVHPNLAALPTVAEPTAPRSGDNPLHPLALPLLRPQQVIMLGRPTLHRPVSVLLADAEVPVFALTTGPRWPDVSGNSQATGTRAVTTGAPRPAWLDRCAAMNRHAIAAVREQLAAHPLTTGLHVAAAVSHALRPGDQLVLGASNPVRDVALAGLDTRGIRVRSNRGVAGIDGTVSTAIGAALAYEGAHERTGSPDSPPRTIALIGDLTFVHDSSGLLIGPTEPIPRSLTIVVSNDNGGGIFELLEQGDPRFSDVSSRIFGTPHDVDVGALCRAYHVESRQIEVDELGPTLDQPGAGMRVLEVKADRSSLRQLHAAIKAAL

Compound | X-ray crystal structure (co-crystallised, 1 mM ThDP) (Mtb-MenD [1]) | % of non-inhibited activity at 20 μM (Mtb-MenD [2]) [%] | IC50 (Mtb-MenD [3]) [nM]
Cc1ncc(C[n+]2csc(CCOP(=O)(O)OP(=O)(O)O)c2C)c(N)n1 [ThDP] | acofactor (ThDP) bound DHNA complex | – | –
O=C(O)c1cc(O)c2ccccc2c1O [DHNA] | – | 24 ± 1 | 53

— paper doi:10.1101/841569v1 (biorxiv, 2019)
